Laboratory results: patent publication US20240252652A1, “PROTEINS HAVING UNNATURAL AMINO ACIDS AND METHODS OF USE” (The Regents of the University of California, priority 2021, published 2024)

How the values were obtained:
[1] = tested on: m^6A modified RNA; assay: GRIP-seq (high-throughput sequencing); format: cell-based, human
Source text: To detect endogenous m^6A sites in mammalian cells throughout the transcriptome, we developed GRIP-seq through combining GRIP for m^6A with high-throughput sequencing, enabling global identification of m^6A sites in vivo with single-nucleotide resolution (FIG. 12A). In brief. HEK293T cells expressing YTH-397SFY protein (FIG. 19A) were lysed and treated with RNase to partially digest RNA into short fragments. After GRIP for these cell lysates (FIG. 19A), the purified protein-RNA cross-links were treated with proteinase K to release the cross-linked RNA fragments, which were converted into a cDNA library through adapting the enhanced CLIP protocol and then subjected to high-throughput sequencing. All m^6A sites cross-linked by YTH-397SFY protein in vivo would be captured and identified by reverse transcription termination at the upstream cross-linked nucleotides. Van Nostrand et al. Nat. Methods 13:508-514 (2016)
We generated four pairs of GRIP-seq libraries. For each pair, we generated one library for the INPUT sample, which represents the RNA fragments from the whole cell lysate, and one library for the IP sample, which represents the RNA fragments cross-linked with the purified YTH proteins. […] For each library, around 10 to 35 million reads were obtained (data not shown). After removing adaptors, we first mapped the reads to the transcriptome. […]

[2] = tested on: nucleoside monophosphates (AMP, UMP, CMP, GMP); assay: In vitro incubations of NMPs and SFY (MS detection of adducts); format: biochemical; details: 50 mM SFY, 50 mM NMP, 37° C., 16 hours
Procedure: In addition, to check if SFY could cross-link all four nucleotides, we incubated 50 mM SFY with 50 mM different nucleoside monophosphates (NMPs: AMP, UMP, CMP, or GMP) at 37° C. for 16 hours.
In vitro incubations of NMPs and SFY. 50 mM SFY (HCl salt) and 50 mM NMP was incubated in DI H2O. 50 mM NaOH was added to neutralize the HCl salt. The mixture was incubated at 37° C. for […]. Then the reaction mixture was diluted for 50 times in H2O/acetonitrile (50/50, v/v, with 0.1% trifluoracetic acid) and subjected to mass spectrum analysis using positive mode. Mass spectrum analysis was performed on SCIEX MDS, 3200 Q TRAP system.
The molecular weight (MW) of addict products between SFY and NMP was calculated following this equation: MW (adduct product)=MW (SFY)+MW (NMP)−MW (HF).

COc1ccc(C[C@H](N)C(=O)O)cc1S(=O)(=O)F [SFY, (S)-1-carboxy-2-(3-(fluorosulfonyl)-4-methoxyphenyl)ethan-1-aminium]
RNA nucleotides cross-linked in vivo [1]: all four RNA nucleotides | cross-linking adducts with NMPs [2]: adducts of SFY with all four NMPs were detected
